According to patent US8022055B2, “Betulinic acid derivatives” (Dabur Pharma Limited, priority 2005, dated 2011):

Columns and labels:
PA1 = test: three day MTT cytotoxicity assay, PA1; type: cell-based, human; conditions: for IC50 for cell lines PA1: PA1, 72 hours
Description: (§1) Briefly, a three day MTT cytotoxicity assay was performed, which is based on the principle of uptake of MTT (3-(4,5-dimethylthiazol-2-yl)-2,5-diphenyl tetrazolium bromide), a tetrazolium salt, by the metabolically active cells where it is metabolized by active mitochondria into a blue colored formazan product that is read spectrophotometrically. MIT was dissolved in phosphate buffered saline with a pH of 7.4 to obtain an MIT concentration of 5 mg/ml; the resulting mixture was filtered through a 0.22-micron filter to sterilize and remove a small amount of insoluble residue. For each type of tumor cell, 10,000 to 15,000 cells were seeded in a 96-well culture plate and incubated with the individual betulinic acid derivatives in a CO2 incubator for a total of 72 hours. Control cells not treated with the betulinic acid derivatives were similarly incubated. The assay was terminated by adding 100 μg (20 μl) of MIT to each well then incubating for additional one hour, and finally adding 50 μl of 10% SDS-0.01N HCl to each well to lyse the cells and dissolve formazan. After incubating for one hour, the plate was read spectrophotometrically at 540 nm and the percentage of cytotoxicity calculated using the following formula: Cytotoxicity percentage=100×[1−(X/R1)], where X=(absorbance of treated sample at 540 nm)−(absorbance of blank at 540 nm) R1=absorbance of control sample at 540 nm. The IC50 Values of the cytotoxicity defined as the concentration at which 50% of the cells are killed in vitro was calculated for each cell line treated with each of the betulinic acid derivatives.

Miapaca = test: three day MTT cytotoxicity assay, Miapaca; type: cell-based, human; conditions: for Specific Index (SI) for cell lines Miapaca: ratio of IC50 of NIH 3T3 cells to Miapaca
Description: (§2) A number of compounds listed in Table-3 were tested for cytotoxicity against prostate, lung, laryngeal, pancreas, breast, colon and ovarian cancer, leukemia and lymphoma, human tumor cell lines. Briefly, a three day MTT cytotoxicity assay was performed, which is based on the principle of uptake of MTT (3-(4,5-dimethylthiazol-2-yl)-2,5-diphenyl tetrazolium bromide), a tetrazolium salt, by the metabolically active cells where it is metabolized by active mitochondria into a blue colored formazan product that is read spectrophotometrically. MIT was dissolved in phosphate buffered saline with a pH of 7.4 to obtain an MIT concentration of 5 mg/ml; the resulting mixture was filtered through a 0.22-micron filter to sterilize and remove a small amount of insoluble residue. For each type of tumor cell, 10,000 to 15,000 cells were seeded in a 96-well culture plate and incubated with the individual betulinic acid derivatives in a CO2 incubator for a total of 72 hours. Control cells not treated with the betulinic acid derivatives were similarly incubated. The assay was terminated by adding 100 μg (20 μl) of MIT to each well then incubating for additional one hour, and finally adding 50 μl of 10% SDS-0.01N HCl to each well to lyse the cells and dissolve formazan. After incubating for one hour, the plate was read spectrophotometrically at 540 nm and the percentage of cytotoxicity calculated using the following formula: Cytotoxicity percentage=100×[1−(X/R1)], where X=(absorbance of treated sample at 540 nm)−(absorbance of blank at 540 nm) R1=absorbance of control sample at 540 nm. The IC50 Values of the cytotoxicity defined as the concentration at which 50% of the cells are killed in vitro was calculated for each cell line treated with each of the betulinic acid derivatives.

SW620 = test: three day MTT cytotoxicity assay, SW620; type: cell-based, human; conditions: for IC50 for cell lines SW620: SW620, 72 hours
Description: as §1

DU145 = test: three day MTT cytotoxicity assay, DU145; type: cell-based, human; conditions: for IC50 for cell lines DU145: DU145, 72 hours
Description: as §2

HBL100 = test: three day MTT cytotoxicity assay, HBL100; type: cell-based, human; conditions: for Specific Index (SI) for cell lines HBL100: ratio of IC50 of NIH 3T3 cells to HBL100
Description: as §2

A549 = test: three day MTT cytotoxicity assay, A549; type: cell-based, human; conditions: for Specific Index (SI) for cell lines A549: ratio of IC50 of NIH 3T3 cells to A549
Description: as §2

K562 = test: three day MTT cytotoxicity assay, K562; type: cell-based, human; conditions: for Specific Index (SI) for cell lines K562: ratio of IC50 of NIH 3T3 cells to K562
Description: as §2

NIH 3T3 cells = test: NIH3T3 cytotoxicity test (72 h MTT assay); type: cell-based; conditions: NIH3T3, 72 hours
Description: The cytotoxic effect of chemicals upon NIH 3T3 cells in culture is measured by cell metabolism determination using the previously described MIT assay. Healthy NIH 3T3 cells (an established cell-line), when maintained in culture continuously divide and multiply over time. The basis of this test is that a cytotoxic chemical (regardless of site or mechanism of action) will interfere with this process and, thus, result in a reduction of the growth rate as reflected by cell number. The degree of inhibition of growth, related to the concentration of the test compound, provides an indication of toxicity.
The NIH 3T3 cells are maintained in culture and exposed to test compounds over a range of concentrations and the number of viable cells determined after 72 hours exposure by MIT assay. The number of cells in the presence of test chemicals are compared to that observed in control cultures and the percent inhibition of growth calculated. The IC50 concentration (i.e. the concentration producing 50% inhibition of growth) is determined and expressed as μg/ml. A ratio of IC50 of NIH 3T3 cells to tumor cells is an indicator of predicted toxicity of the molecule and is represented as “Safety Index”. The higher the value, the better is the predicted safety of the molecule.

Row | Molecule | IC50 for cell lines PA1 (PA1) [µg/mL] | IC50 for cell lines Miapaca (Miapaca; Miapaca, 72 hours, MTT) [µg/mL] | IC50 for cell lines SW620 (SW620) [µg/mL] | IC50 for cell lines DU145 (DU145) [µg/mL] | IC50 for cell lines HBL100 (HBL100; HBL100, 72 hours, MTT) [µg/mL] | IC50 for cell lines A549 (A549; A549, 72 hours, MTT) [µg/mL] | IC50 for cell lines K562 (K562; K562, 72 hours, MTT) [µg/mL] | IC50 for cell lines NIH3T3 (NIH 3T3 cells) [µg/mL] | IC50 (PA1; Homo sapiens, PA-1, PA1, 72 hours, read-out: IC50 for cell lines PA1) [µg/mL] | IC50 (Miapaca; Homo sapiens, MIA PaCa-2, Miapaca, 72 hours, MTT, read-out: IC50 for cell lines Miapaca) [µg/mL] | IC50 (SW620; Homo sapiens, SW-620, SW620, 72 hours, read-out: IC50 for cell lines SW620) [µg/mL] | IC50 (DU145; Homo sapiens, DU-145, DU145, 72 hours, read-out: IC50 for cell lines DU145) [µg/mL] | IC50 (HBL100; Homo sapiens, HBL-100, HBL100, 72 hours, MTT, read-out: IC50 for cell lines HBL100) [µg/mL] | IC50 (A549; Homo sapiens, A549, 72 hours, MTT, read-out: IC50 for cell lines A549) [µg/mL] | IC50 (K562; Homo sapiens, K562, 72 hours, MTT, read-out: IC50 for cell lines K562) [µg/mL] | IC50 (NIH 3T3 cells; Mus musculus, read-out: IC50 for cell lines NIH3T3) [µg/mL] | Specific Index (SI) for cell lines Miapaca (Miapaca) | Specific Index (SI) for cell lines HBL100 (HBL100) | Specific Index (SI) for cell lines A549 (A549) | Specific Index (SI) for cell lines K562 (K562)
1 | C=C(C)[C@@H]1CC[C@]2(C(=O)OCc3ccccc3)CC[C@]3(C)C(CCC4[C@@]5(C)Cc6c([nH]c7ccccc67)C(C)(C)C5CC[C@]43C)C12 (some centres unmarked) [Compound 15, 28-O-Benzyl-2,3-didehydro[2′,3′:2,3]indolobetulinate] | >20 | >20 | >20 | >20 | >20 | >20 | >20 | >20 |  |  |  |  |  |  |  |  |  |  |  | 
2 | CC(C)[C@@H]1CC[C@]2(C(=O)O)CC[C@]3(C)C(CCC4[C@@]5(C)Cc6c([nH]c7ccccc67)C(C)(C)C5CC[C@]43C)C12 (some centres unmarked) [Compound 2, 2,3-Didehydro-20,29-dihydroindolo[2′,3′:2,3]betulinic acid] | >20 | >20 | >20 | >20 | >20 | >20 | 15.07 ± 2.15 | >20 |  |  |  |  |  |  |  |  |  |  |  | 
3 | C=C(C)[C@@H]1CC[C@]2(C(=O)NCC(=O)OC)CC[C@]3(C)C(CCC4[C@@]5(C)Cc6c([nH]c7ccc(Cl)cc67)C(C)(C)C5CC[C@]43C)C12 (some centres unmarked) [Compound 23, 28-N-Methylglycinate-5′-chloro-2,3-didehydroindolo[2′,3′:2,3]betulinamide] |  |  |  |  |  |  |  |  | > 20 | > 20 | > 20 | > 20 | > 20 | > 20 | > 20 | > 20 |  |  |  | 
4 | C=C(C)[C@@H]1CC[C@]2(C(=O)NC3CC3)CC[C@]3(C)C(CCC4[C@@]5(C)Cc6c([nH]c7ccc(Cl)cc67)C(C)(C)C5CC[C@]43C)C12 (some centres unmarked) [Compound 34, 28-N-Cyclopropyl-5′-chloro-2,3-didehydroindolo[2′,′:2,3]betulinamide] | >20 | >20 | >20 | >20 | >20 | >20 | >20 | 1.82 |  |  |  |  |  |  |  |  |  |  |  | 
5 | C=C(C)[C@@H]1CC[C@]2(C(=O)Nc3nccs3)CC[C@]3(C)C(CCC4[C@@]5(C)Cc6c([nH]c7ccc(Cl)cc67)C(C)(C)C5CC[C@]43C)C12 (some centres unmarked) [Compound 26, 28-N-(2″-thiazole)-5′-chloro-2,3-didehydroindolo[2′,′:2,3]betulinamide] | >20 | >20 | >20 | >20 | >20 | >20 | >20 | >20 |  |  |  |  |  |  |  |  |  |  |  | 
6 | CC(C)[C@@H]1CC[C@]2(C(=O)O)CC[C@]3(C)[C@H](CC[C@@H]4[C@@]5(C)Cc6c([nH]c7ccc(F)cc67)C(C)(C)[C@@H]5CC[C@]43C)[C@@H]12 [Compound 8, 2,3-Didehydro-5′-fluoro-20,29-dihydroindolo[2′,′:2,3]betulinic acid] |  | 8.4 ± 0.76 | 7.28 |  | >20 | 8.89 ± 0.84 | 14.01 ± 0.75 | 14.59 ± 0.33 |  |  |  |  |  |  |  |  | 1.737 | <0.730 | 1.641 | 1.041
7 | 28-O-Pivaloyoxymethyl-2,3-didehydroindolo[2′,3′:2,3]betulinate [Compound 17] | >20 | >20 | >20 | >20 | >20 | >20 | >20 | >20 |  |  |  |  |  |  |  |  |  |  |  | 
8 | C#CCNC(=O)[C@]12CC[C@@H](C(=C)C)C1C1CCC3[C@@]4(C)Cc5c([nH]c6ccc(Cl)cc56)C(C)(C)C4CC[C@@]3(C)[C@]1(C)CC2 (some centres unmarked) [Compound 27, 28-N-Propargyl-5′-chloro-2,3-didehydroindolo[2′,′:2,3]betulinamide] | >20 | >20 | >20 | >20 | >20 | >20 | >20 | >20 |  |  |  |  |  |  |  |  |  |  |  | 
9 | C=C(C)[C@@H]1CC[C@]2(C(=O)O)CC[C@]3(C)C(CCC4[C@@]5(C)Cc6c(n(C)c7ccccc67)C(C)(C)C5CC[C@]43C)C12 (some centres unmarked) [Compound 3, 2,3-Didehydro-1′-methylindolo[2′,′:2,3]betulinic acid] |  | 5.34 ± 0.96 |  | ≥ 20 | 19.5 ± 2.1 | 6.9 ± 0.21 | 7.73 ± 0.17 | 15.12 ± 3.04 |  |  |  |  |  |  |  |  | 2.831 | 0.775 | 2.191 | 1.956
10 | C=C(C)[C@@H]1CC[C@]2(C(=O)O)CC[C@]3(C)[C@H](CC[C@@H]4[C@@]5(C)Cc6c([nH]c7ccc(F)cc67)C(C)(C)[C@@H]5CC[C@]43C)[C@@H]12 [Compound 7, 2,3-Didehydro-5′-fluoroindolo[2′,′:2,3]betulinic acid] |  | 17.4 ± 2.6 | 9.16 |  | >20 | 17.8 ± 1.79 | 10.95 ± 0.93 | >20 |  |  |  |  |  |  |  |  | >1.149 |  | >1.123 | >1.826
11 | CC(C)[C@@H]1CC[C@]2(C(=O)O)CC[C@]3(C)C(CCC4[C@@]5(C)Cc6c(n(C)c7ccccc67)C(C)(C)C5CC[C@]43C)C12 (some centres unmarked) [Compound 4, 2,3-Didehydro-20,29-dihydro-1′-methylindolo[2′,3′,2,3]betulinic acid] | >20 | 5.4 ± 0.43 |  | >20 | 14.14 ± 0.8 | 6.5 ± 3.4 | 10.85 ± 1.5 | >20 |  |  |  |  |  |  |  |  | >3.703 | >1.414 | >3.076 | >1.843
12 | 1′-Benzyl-2,3-didehydro-20,29-dihydro-4′-phenylpyrrolo[2′,′:2,3]betulinic acid [Compound 13] | >20 | >20 | >20 | >20 | >20 |  |  | >20 |  |  |  |  |  |  |  |  |  |  |  | 
13 | CC(C)[C@@H]1CC[C@]2(C(=O)O)CC[C@]3(C)[C@H](CC[C@@H]4[C@@]5(C)Cc6c(oc7ccccc67)C(C)(C)[C@@H]5CC[C@]43C)[C@@H]12 [Compound 12, 2,3-Didehydro-20,29-dihydrobenzfurano[2′,3′:2,3]betulinic acid] | >20 | 8.8 ± 0.36 |  | >20 | >20 | 7.1 ± 1.6 | 15.28 ± 0.18 | 20 ± 5.6 |  |  |  |  |  |  |  |  | 2.273 | <1 | 2.817 | 1.309
